These results are taken from US8765728B2, “[1,5]-diazocin derivatives” (MelliTech, priority 2009, dated 2014).

In the test the test system is Min6 cell. The test is described as follows: Insulin secretion response of beta cell line to formula I compounds (insulin ELISA). The class given is cell-based. Conditions: rank according to % increase versus control at most effective dose. The method in brief:
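After compound or vehicle exposure, Min6 cells were held 2 h in glucose-free medium and preincubated 30 min at 37° C in glucose-free KRBH (pH 7.4, 0.1% BSA). They were then incubated 30 min at 37° C in KRBH with varying glucose. Secreted insulin and acid-ethanol-extracted intracellular insulin were measured by ELISA.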
(In an ELISA, binding on a coated surface is turned into a signal by an enzyme label.)
In the case of `COc1ccc2c(c1)CN(C1CC1)C(=O)CCN2C(=O)c1ncoc1-c1ccccc1` [Compound 98, 5-cyclopropyl-8-methoxy-1-(5-phenyloxazole-4-carbonyl)-2,3,5,6-tetrahydrobenzo[b][1,5]diazocin-4(1H)-one], the “Insulin secretion (Min6 cell) Range 1 to 5” value (shortened to “Insulin secretion”) is given as 2 (2: 110-120% of control).
For `COc1ccc2c(c1)CN(C1CC1)C(=O)CCN2C(=O)c1cc(C)nn1C` [Compound 99, 5-cyclopropyl-1-(1,3-dimethyl-1H-pyrazole-5-carbonyl)-8-methoxy-2,3,5,6-tetrahydrobenzo[b][1,5]diazocin-4(1H)-one], the “Insulin secretion” value was 1 (1: 90-110% of control).
Turning to `COc1ccc2c(c1)CN(C1CC1)C(=O)CCN2C(=O)c1c(C)noc1C` [Compound 100, 5-cyclopropyl-1-(3,5-dimethylisoxazole-4-carbonyl)-8-methoxy-2,3,5,6-tetrahydrobenzo[b][1,5]diazocin-4(1H)-one], the “Insulin secretion” value is 1 (1: 90-110% of control).
For `COc1ccc2c(c1)CN(C1CC1)C(=O)CCN2C(=O)c1cnccn1` [Compound 101, 5-cyclopropyl-8-methoxy-1-(pyrazine-2-carbonyl)-2,3,5,6-tetrahydrobenzo[b][1,5]diazocin-4(1H)-one] the value was 2 (2: 110-120% of control).
For `O=C(c1ncoc1-c1ccccc1)N1CCC(=O)N(C2CC2)Cc2cccnc21` [Compound 103, 5-cyclopropyl-1-(5-phenyloxazole-4-carbonyl)-2,3,5,6-tetrahydropyrido[2,3-b][1,5]diazocin-4(1H)-one] the value was 2 (2: 110-120% of control); for `Cc1cc(C(=O)N2CCC(=O)N(C3CC3)Cc3cccnc32)no1` [Compound 104, 5-cyclopropyl-1-(5-methylisoxazole-3-carbonyl)-2,3,5,6-tetrahydropyrido[2,3-b][1,5]diazocin-4(1H)-one], 4 (4: 140-170% of control); for `Cc1cc(C(=O)N2CCC(=O)N(C3CC3)Cc3cccnc32)n(C)n1` [Compound 105, 5-cyclopropyl-1-(1,3-dimethyl-1H-pyrazole-5-carbonyl)-2,3,5,6-tetrahydropyrido[2,3-b][1,5]diazocin-4(1H)-one], 3 (3: 120-140% of control).
Consider `Cc1noc(C)c1C(=O)N1CCC(=O)N(C2CC2)Cc2cccnc21` [Compound 106, 5-cyclopropyl-1-(3,5-dimethylisoxazole-4-carbonyl)-2,3,5,6-tetrahydropyrido[2,3-b][1,5]diazocin-4(1H)-one], for which the “Insulin secretion” value is reported as 1 (1: 90-110% of control).
In the case of `O=C(c1cnccn1)N1CCC(=O)N(C2CC2)Cc2cccnc21` [Compound 107, 5-cyclopropyl-1-(pyrazine-2-carbonyl)-2,3,5,6-tetrahydropyrido[2,3-b][1,5]diazocin-4(1H)-one], the “Insulin secretion” value is 2 (2: 110-120% of control).
As to `O=C1CCNc2ccc(OC(F)F)cc2CN1C1CC1` [Compound 108, 5-cyclopropyl-8-(difluoromethoxy)-2,3,5,6-tetrahydrobenzo[b][1,5]diazocin-4(1H)-one], the “Insulin secretion” value was 2 (2: 110-120% of control).
On to `COc1ccc2c(c1)CN(C1CC1)C(=O)CCN2C[C@@H](O)COc1cccc(F)c1` [Compound 109, (R)-5-cyclopropyl-1-(3-(3-fluorophenoxy)-2-hydroxypropyl)-8-methoxy-2,3,5,6-tetrahydrobenzo[b][1,5]diazocin-4(1H)-one], for which the “Insulin secretion” value is 3 (3: 120-140% of control).
In the case of `COc1ccc2c(c1)CN(C1CC1)C(=O)CCN2C[C@H](O)COc1cccc(F)c1` [Compound 110, (S)-5-cyclopropyl-1-(3-(3-fluorophenoxy)-2-hydroxypropyl)-8-methoxy-2,3,5,6-tetrahydrobenzo[b][1,5]diazocin-4(1H)-one] it was 1 (1: 90-110% of control); in that of `O=C(c1ccno1)N1CCC(=O)N(C2CC2)Cc2cc(OC(F)F)ccc21` [Compound 111, 5-cyclopropyl-8-(difluoromethoxy)-1-(isoxazole-5-carbonyl)-2,3,5,6-tetrahydrobenzo[b][1,5]diazocin-4(1H)-one], 1 (1: 90-110% of control); in that of `O=C(c1ncoc1-c1ccccc1)N1CCC(=O)N(C2CC2)Cc2cc(OC(F)F)ccc21` [Compound 112, 5-cyclopropyl-8-(difluoromethoxy)-1-(5-phenyloxazole-4-carbonyl)-2,3,5,6-tetrahydrobenzo[b][1,5]diazocin-4(1H)-one], 1 (1: 90-110% of control).
For `Cc1cc(C(=O)N2CCC(=O)N(C3CC3)Cc3cc(OC(F)F)ccc32)no1` [Compound 113, 5-cyclopropyl-8-(difluoromethoxy)-1-(5-methylisoxazole-3-carbonyl)-2,3,5,6-tetrahydrobenzo[b][1,5]diazocin-4(1H)-one] the value was 1 (1: 90-110% of control); for `Cc1cc(C(=O)N2CCC(=O)N(C3CC3)Cc3cc(OC(F)F)ccc32)n(C)n1` [Compound 114, 5-cyclopropyl-8-(difluoromethoxy)-1-(1,3-dimethyl-1H-pyrazole-5-carbonyl)-2,3,5,6-tetrahydrobenzo[b][1,5]diazocin-4(1H)-one], 1 (1: 90-110% of control); for `Cc1noc(C)c1C(=O)N1CCC(=O)N(C2CC2)Cc2cc(OC(F)F)ccc21` [Compound 115, 5-cyclopropyl-8-(difluoromethoxy)-1-(3,5-dimethylisoxazole-4-carbonyl)-2,3,5,6-tetrahydrobenzo[b][1,5]diazocin-4(1H)-one], 1 (1: 90-110% of control).
For the compound `O=C(c1cnccn1)N1CCC(=O)N(C2CC2)Cc2cc(OC(F)F)ccc21` [Compound 116, 5-cyclopropyl-8-(difluoromethoxy)-1-(pyrazine-2-carbonyl)-2,3,5,6-tetrahydrobenzo[b][1,5]diazocin-4(1H)-one], the “Insulin secretion” value was 2 (2: 110-120% of control).
`O=C1CCN(C[C@@H](O)COc2cccc(F)c2)c2ccc(OC(F)F)cc2CN1C1CC1` [Compound 117, (R)-5-cyclopropyl-8-(difluoromethoxy)-1-(3-(3-fluorophenoxy)-2-hydroxypropyl)-2,3,5,6-tetrahydrobenzo[b][1,5]diazocin-4(1H)-one]: the “Insulin secretion” value is on record as 1 (1: 90-110% of control).
For `O=C1CCN(C[C@H](O)COc2cccc(F)c2)c2ccc(OC(F)F)cc2CN1C1CC1` [Compound 118, (S)-5-cyclopropyl-8-(difluoromethoxy)-1-(3-(3-fluorophenoxy)-2-hydroxypropyl)-2,3,5,6-tetrahydrobenzo[b][1,5]diazocin-4(1H)-one], the “Insulin secretion” value is 2 (2: 110-120% of control).
Regarding `O=C1CCN(C[C@@H](O)COc2ccc(Cl)cc2)c2ccc(OC(F)F)cc2CN1C1CC1` [Compound 119, (R)-1-(3-(4-chlorophenoxy)-2-hydroxypropyl)-5-cyclopropyl-8-(difluoromethoxy)-2,3,5,6-tetrahydrobenzo[b][1,5]diazocin-4(1H)-one], the “Insulin secretion” value was 3 (3: 120-140% of control).
In the case of `O=C1CCN(C[C@H](O)COc2ccc(Cl)cc2)c2ccc(OC(F)F)cc2CN1C1CC1` [Compound 120, (S)-1-(3-(4-chlorophenoxy)-2-hydroxypropyl)-5-cyclopropyl-8-(difluoromethoxy)-2,3,5,6-tetrahydrobenzo[b][1,5]diazocin-4(1H)-one] it was 1 (1: 90-110% of control).
In the case of `COCC(=O)N1CCC(=O)N(C2CC2)Cc2cc(F)ccc21` [Compound 121, 5-cyclopropyl-8-fluoro-1-(2-methoxyacetyl)-2,3,5,6-tetrahydrobenzo[b][1,5]diazocin-4(1H)-one], the “Insulin secretion” value is 1 (1: 90-110% of control).
For `O=C(COc1ccccc1)N1CCC(=O)N(C2CC2)Cc2cc(F)ccc21` [Compound 122, 5-cyclopropyl-8-fluoro-1-(2-phenoxyacetyl)-2,3,5,6-tetrahydrobenzo[b][1,5]diazocin-4(1H)-one] the value was 1 (1: 90-110% of control); for `O=C(c1ccco1)N1CCC(=O)N(C2CC2)Cc2cc(F)ccc21` [Compound 123, 5-cyclopropyl-8-fluoro-1-(furan-2-carbonyl)-2,3,5,6-tetrahydrobenzo[b][1,5]diazocin-4(1H)-one], 1 (1: 90-110% of control).
In the case of `O=C1CCNc2ccc(OC(F)F)cc2CN1C1CC1` [Compound 124, 5-cyclopropyl-8-(difluoromethoxy)-2,3,5,6-tetrahydrobenzo[b][1,5]diazocin-4(1H)-one] it was 1 (1: 90-110% of control).
For the compound `Cn1cnc(S(=O)(=O)N2CCC(=O)N(C3CC3)Cc3c2ccc2c3OCCO2)c1` [Compound 125, 11-cyclopropyl-7-((1-methyl-1H-imidazol-4-yl)sulfonyl)-2,3,8,9,11,12-hexahydro-[1,4]dioxino[2′,3′:3,4]benzo[1,2-b][1,5]diazocin-10(7H)-one], the “Insulin secretion” value is 1 (1: 90-110% of control).
Turning to `O=C1CCN(C[C@@H](O)COc2ccc(Cl)cc2)c2ccc3c(c2CN1C1CC1)OCCO3` [Compound 126, (R)-7-(3-(4-chlorophenoxy)-2-hydroxypropyl)-11-cyclopropyl-2,3,8,9,11,12-hexahydro-[1,4]dioxino[2′,3′:3,4]benzo[1,2-b][1,5]diazocin-10(7H)-one], the “Insulin secretion” value is given as 2 (2: 110-120% of control).
Regarding `COc1ccc2c(c1OC(F)F)CN(C1CC1)C(=O)CCN2` [Compound 127, 5-cyclopropyl-7-(difluoromethoxy)-8-methoxy-2,3,5,6-tetrahydrobenzo[b][1,5]diazocin-4(1H)-one], the “Insulin secretion” value is on record as 1 (1: 90-110% of control).
On to `O=C(c1cnccn1)N1CCC(=O)N(C2CC2)Cc2c1ccc1c2OCCO1` [Compound 128, 11-cyclopropyl-7-(pyrazine-2-carbonyl)-2,3,8,9,11,12-hexahydro-[1,4]dioxino[2′,3′:3,4]benzo[1,2-b][1,5]diazocin-10(7H)-one], for which the “Insulin secretion” value is reported as 1 (1: 90-110% of control).
